# Experimental data as given in patent US20260115177A1, “MEDICINAL PRODUCTS AND METHODS FOR THE ALLEVIATION OF CANCER IMMUNOTHERA-PY-ASSOCIATED CYTOKINE RELEASE SYNDROME” (POOLBEG PHARMA (UK) LIMITED, priority 2023, published 2026).
# Legend:
# CD19+ cancer cells = assay: CAR T cell killing of tumour cells in 24-hour co-culture (flow cytometry); format: cell-based, human; settings: high dose only, CAR T to cancer cell ratio 1:1
# From the text: Raji immortalized human B cell line CD19-expressing cancer cells (available from the American Type Culture Collection) are acquired and stable transfection of the Raji cell line is generated with an mCherry reporter protein to facilitate identification of the cancer cells within co-cultures by detection of the mCherry protein fluorescence by flow cytometry.
# UR-13870, Ralimetinib or Acumapimod are each added to a culture of CD19+ cancer cells (using a micropipette to transfer the correct volume to achieve the desired final concentration in Table 2).
# CAR T cells are then added to the same culture 5-10 minutes later. In brief, CAR T cell concentrations per ml are determined and used to aliquot the desired number of CAR T cells into the culture to achieve the described 1:1 CAR T to cancer cell ratio.
# The co-culture containing CAR T cells and tumour cells is swirled gently to ensure homogenous dispersion of cells throughout the vessel. The resultant co-culture is incubated for 24 to 96 hours in a closed incubator at 37° C. with 5% CO2 and a suitably humid atmosphere.
# Tumour cell death is observed by examining relative CAR T cell:tumour cell numbers by flow cytometry following 24 hour co-culture, as shown in FIG. 7.
# THP-1 monocytes = assay: IL-6 ELISA of THP-1 monocytes treated with sCAR; format: cell-based, human; settings: sCAR stimulation, 24 hours; concentrations of Table 2
# Procedure: In Example 3 below, sCAR (or smCAR) is added using a micropipette to an in vitro culture of monocyte cells of the human monocytic cell line THP-1, available from the American Type Culture Collection. The culture is incubated in a closed incubator at 37° C. with 5% CO2 and a suitably humid atmosphere for approximately 24 hours, following which cytokine release is observed. p38 MAPK activation and cytokine release are confirmed by evaluation of the presence of IL-6 in THP-1 cells using an enzyme-linked immunosorbent assay (ELISA; for which a kit is suitably obtainable from Thermo Fisher Scientific of Kingfisher Dr, Swindon SN3 5BZ, UK).
# (i) Monocytes sCAR (or smCAR), produced as described in Example 1 above, is added to a monoculture of THP-1 monocytes in the presence of UR-13870, Ralimetinib or Acumapimod at each of the concentrations shown in Table 2 above at 37° C., 5% CO2 and a suitably humid environment for 24 hours.
# Supernatant levels of IL-6 from the THP-1 monocyte monoculture with sCAR (or smCAR) are determined by ELISA.
# [1] = tested on: PBMC-humanized NSG-MHC I/II double knock-out mice with Raji-Luc CD19-expressing cancer cells; assay: In vivo (murine) model using CAR T for CRS induction; set-up: species or system mouse
# Procedure: An outline of the timeline of the model is provided in FIG. 16; it commences on Study Day −5 and ends on Study Day 10.
# Thus, on Study Day −5, 30 female 6- to 8-week-old NSG-(KbDb)null (IA)null mice are irradiated at 100 cGy. 4 hours later, on the same day (Study Day −5) they are each injected, via tail vein, with 0.25×10^6 Raji-Luc CD19-expressing cancer cells (a Raji wild-type cell line with stable and high expression of luciferase, enabling detection of cancer burden by […]).
# On Study Day −2, clinical observation commences for all 30 mice (including body weight monitoring) and all 30 mice are imaged using in vivo […] imaging (IVIS). For IVIS, mice are intraperitoneally injected with 150 mg/kg D-Luciferin. 10 minutes after the D-Luciferin injection, mice are imaged dorsally and ventrally (auto exposure) using an IVIS Lumina system (obtainable from PerkinElmer of Chalfont Road, Seer Green, Beaconsfield, HP9 2FX, UK). Region of interest (ROI) are drawn for each mouse to capture its whole body, and total flux (p/s) is reported. IVIS imaging of all 30 mice continues on a biweekly basis throughout the study, thereby monitoring cancer cell burden. Daily clinical observation continues throughout the study, including observation of CRS, CRS being scored as follows:
# 25 of the mice are injected intraperitoneally, on Study Day 0, with 5×10^6 anti-CD19 CAR T cells in phosphate-buffered saline.
# As a control, a group consisting of 5 of the mice (“Group 1”) are not administered CAR T cells. Beginning on Study Day −1 and ending on Study Day 9, Group 1 receive treatment with 0.5% (w:v) HPMC, 0.1% (w:v) Tween 80 in sWFI (vehicle/control), administered BID at 5 mL/kg.
# The 25 mice administered CAR T cells are divided into groups of 5 mice per group. […]
smiles,measurement,setting,value
"OCCCn1cc2c(-c3ccc(F)cc3)c(-c3ccncc3)c(-c3ccc(F)cc3)nc2n1 [UR-13870, 6-bis(4-fluorophenyl)-5-(4-pyridinyl)-2Hpyrazolo[3,4-b]pyridine-2-propanol]",CAR T cell-induced cancer cell death (percentage of residual tumour cells in the co-culture),CD19+ cancer cells,maintain CAR T cell-induced cancer cell death
same,IL-6 secretion by THP-1 monocytes,THP-1 monocytes,significantly reduce
same,CAR T cell expansion (flow cytometry),"[1]; blood, Study Days 2, 6 and 10",successfully maintained
same,"CAR T cell therapy efficacy, tumour burden (IVIS)","[1]; day 7 and day 9, UR-13870 2, 10, 25 mg/kg BID s.c., Humira 5 mg/kg i.p. once",remained efficacious
same,number of CAR T cells in circulation,"[1]; day 10, high dose (25 mg/kg BID)",significantly enhanced
